Test results reported in patent publication US7678913B2, “Ureas as factor Xa inhibitors” (Portola Pharmaceuticals, Inc., priority 2004, dated 2010).

Molecular target: T1, human plasma protein factor Xa (Homo sapiens, UniProt P00742)
T1 construct: measure proteolytic activity of the enzyme (factor Xa); purchased Haematologic Technologies (Essex Junction, Vt.); host or cells: human plasma
Assay: Factor Xa IC50 determination (cleavage of chromogenic substrate S-2765)
Format: biochemical
Conditions: fXa 1 nM, S-2765 100 μM, Tris buffered saline pH 7.4, room temperature
Source text: This example illustrates methods for evaluating the compounds of the invention, along with results obtained for such assays. The in vitro and in vivo Factor Xa isoform activities of the inventive compounds can be determined by various procedures known in the art, such as a test for their ability to inhibit the activity of the Factor Xa isoform. […] The IC50 value is the concentration (in nM) of the compound required to provide 50% inhibition of Factor Xa isoform.
An in vitro assay for detecting and measuring inhibition activity against Factor Xa is as follows:
• The substrate S-2765 (Z-D-Arg-Gly-Arg-pNA.HCl) was obtained from Diapharma (West Chester, Ohio). Enzyme: • The human plasma protein factor Xa was purchased from Haematologic Technologies (Essex Junction, Vt.). Methods
All assays, which are performed in 96-well microtiter plates, measure proteolytic activity of the enzyme (factor Xa) by following cleavage of paranitroanilide substrate. The assay buffer used for proteolytic assays was Tris buffered saline (20 mM Tris, 150 mM NaCl, 5 mM CaCl2, 0.1% Bovine serum albumin (BSA), 5% Dimethly Sulfoxide (DMSO) pH 7.4). In a 96-well microtiter plate, inhibitor was serially diluted to give a range of concentrations from 0.01 nM to 10 μM (final). Duplicate sets of wells were assayed and control wells without inhibitor were included. Enzyme was added to each well,(fXa concentration=1nM), the plate was shaken for 5 seconds and then incubated for 5 minutes at room temperature. S2765 was added (100 μM final) and the plate was shaken for 5 seconds (final liquid volume in each well was 200 μl). The degree of substrate hydrolysis was measured at 405 nm on a Thermomax plate reader (Molecular Devices, Sunnyvale, Calif.) for 2 minutes. The initial velocities (mOD/min), for each range of inhibitor concentrations, were fitted to a four parameter equation using Softmax data analysis software. The parameter C, derived from the resulting curve-fit, corresponded to the concentration for half maximal inhibition (IC50).

T1 sequence (P00742 235-488 limits assumed): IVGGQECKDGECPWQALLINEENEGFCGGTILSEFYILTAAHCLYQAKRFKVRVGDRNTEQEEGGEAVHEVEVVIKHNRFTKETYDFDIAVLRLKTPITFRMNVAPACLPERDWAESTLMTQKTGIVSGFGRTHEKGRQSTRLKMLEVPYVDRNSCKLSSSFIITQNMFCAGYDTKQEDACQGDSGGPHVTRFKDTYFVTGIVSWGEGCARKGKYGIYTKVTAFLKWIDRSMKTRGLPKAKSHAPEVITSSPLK
T1 sequence (P00742 41-179 partner limits assumed): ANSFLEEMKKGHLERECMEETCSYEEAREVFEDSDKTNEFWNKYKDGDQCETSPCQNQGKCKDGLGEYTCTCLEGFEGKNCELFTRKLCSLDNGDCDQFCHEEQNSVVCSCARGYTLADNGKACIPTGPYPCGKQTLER

Cc1ccccc1C(NC(=O)Nc1ccc(Cl)cc1)C(=O)Nc1ccc(-c2cccc[n+]2[O-])cc1 (centres unmarked) [Example 88, N-[4-(N-oxo-pyridin-2-yl)phenyl]-2-(2-methylphenyl)-2-(4-chlorophenylaminocarbonylamino)-acetamide] and O=C(Nc1ccc(Cl)cc1)NC(C(=O)Nc1ccc(-c2cccc[n+]2[O-])cc1)c1ccccc1SC(F)(F)F (centres unmarked) [Example 123, N-[4-(N-oxo-pyridin-2-yl)phenyl]-2-(2-trifluoromethylthiophenyl)-2-(4-chlorophenylaminocarbonylamino)-acetamide] cannot be ordered by IC50: at most 100 nM for the first, at most 100 nM for the second.

CN1CCN=C1c1ccc(NC(=O)C(NC(=O)Nc2ccc(Cl)cc2)C(C)(C)C)cc1 (centres unmarked) [Example 3, N-[4-(1-methyl-4,5-dihydro-1H-imidazol-2-yl)phenyl]-2-(1,1-dimethylethyl)-2-(4-chlorophenylaminocarbonylamino)-acetamide] and CC#CCC(NC(=O)Nc1ccc(Cl)cc1)C(=O)Nc1ccc(C2=NCCN2C)cc1 (centres unmarked) [Example 130, N-[4-(1-methyl-4,5-dihydro-1H-imidazol-2-yl)phenyl]-2-(but-2-yn-1-yl)-2-(4-chlorophenylaminocarbonylamino)-acetamide] cannot be ordered by IC50: 100 to 500 nM for the first, at most 100 nM for the second.

Cc1ccccc1C(NC(=O)Nc1ccc(Cl)cc1)C(=O)Nc1ccc(C2=NCCN2C)cc1 (centres unmarked) [Example 84, N-[4-(1-methyl-4,5-dihydro-1H-imidazol-2-yl)phenyl]-2-(2-methylphenyl)-2-(4-chlorophenylaminocarbonylamino)-acetamide] and CN1CCN=C1c1ccc(NC(=O)C(NC(=O)Nc2ccc(Cl)cc2)c2ccccc2Cl)cc1 (centres unmarked) [Example 75, N-[4-(1-methyl-4,5-dihydro-1H-imidazol-2-yl)phenyl]-2-(2-chlorophenyl)-2-(4-chlorophenylaminocarbonylamino)-acetamide] cannot be ordered by IC50: at most 100 nM for the first, at most 100 nM for the second.

CC#CCC(NC(=O)Nc1ccc(Cl)cc1)C(=O)Nc1ccc(-c2cccc[n+]2[O-])cc1 (centres unmarked) [Example 131, N-[4-(N-oxo-pyridin-2-yl)phenyl]-2-(but-2-yn-1-yl)-2-(4-chlorophenylaminocarbonylamino)-acetamide] and C=CCC(NC(=O)Nc1ccc(Cl)cc1)C(=O)Nc1ccc(C2=NCCN2C)cc1 (centres unmarked) [Example 132, N-[4-(1-methyl-4,5-dihydro-1H-imidazol-2-yl)phenyl]-2-allyl-2-(4-chlorophenylaminocarbonylamino)-acetamide] cannot be ordered by IC50: at most 100 nM for the first, at most 100 nM for the second.

CN(C)C(=N)c1ccc(NC(=O)C(NC(=O)Nc2ccc(Cl)cc2)c2ccccc2)c(F)c1 (centres unmarked) [Example 33, N-[4-(dimethylaminoimino)-2-fluorophenyl]-2-phenyl-2-(4-chlorophenylaminocarbonylamino)-acetamide] and CNC(=N)c1ccc(NC(=O)C(NC(=O)Nc2ccc(Cl)cc2)c2ccccc2)c(F)c1 (centres unmarked) [Example 37, N-(4-methylaminoimino-2-fluorophenyl)-2-phenyl-2-(4-chlorophenylamino-carbonylamino)-acetamide] cannot be ordered by IC50: at most 100 nM for the first, at most 100 nM for the second.

COc1ccccc1C(NC(=O)Nc1ccc(Cl)cc1)C(=O)N1CCC(N2CCCCC2=O)CC1 (centres unmarked) [Example 150, 4-(2-piperidinon-1-yl)piperidin-1-yl-2-(2-methoxyphenyl)-2-(4-chlorophenylaminocarbonylamino)-acetamide] and O=C(Nc1ccc(Cl)cc1)N[C@@H](C(=O)N1CCC(N2CCCCC2=O)CC1)c1ccccc1 [Example 141, (2R) 4-(2-piperidinon-1-yl)piperidin-1-yl-2-phenyl-2-(4-chlorophenylaminocarbonylamino)-acetamide] cannot be ordered by IC50: at most 100 nM for the first, at most 100 nM for the second.

CN1CCN=C1c1ccc(NC(=O)C(NC(=O)Nc2ccc(Cl)cc2)c2ccc(F)cc2)cc1 (centres unmarked) [Example 10, N-[4-(1-methyl-4,5-dihydro-1H-imidazol-2-yl)phenyl]-2-(4-fluorophenyl)-2-(4-chlorophenylaminocarbonylamino)-acetamide] and CN1CCN=C1c1ccc(NC(=O)C(NC(=O)Nc2ccc(Cl)cc2)c2ccccc2Br)cc1 (centres unmarked) [Example 77, N-[4-(1-methyl-4,5-dihydro-1H-imidazol-2-yl)phenyl]-2-(2-bromophenyl)-2-(4-chlorophenylaminocarbonylamino)-acetamide] cannot be ordered by IC50: at most 100 nM for the first, at most 100 nM for the second.

CN(C)C(=N)c1ccc(NC(=O)C(NC(=O)Nc2ccc(Cl)cc2)c2ccccc2F)cc1 (centres unmarked) [Example 43, N-[4-(dimethylaminoimino)phenyl]-2-(2-fluorophenyl)-2-(4-chlorophenylaminocarbonylamino)-acetamide] and Cc1ccccc1C(NC(=O)Nc1ccc(Cl)cc1)C(=O)Nc1ccc(C(=N)N(C)C)cc1 (centres unmarked) [Example 86] cannot be ordered by IC50: at most 100 nM for the first, at most 100 nM for the second.

CN1CCCN(C2CCN(C(=O)[C@H](NC(=O)Nc3ccc(Cl)cc3)c3ccccc3)CC2)CC1 [Example 154, (2R) 4-(4-methylhomopiperazin-1-yl)piperidin-1-yl-2-phenyl-2-(4-chlorophenylaminocarbonylamino)-acetamide] and CN1CCC(N2CCCN(C(=O)[C@H](NC(=O)Nc3ccc(Cl)cc3)c3ccccc3)CC2)CC1 [Example 156, (2R) 4-(1-methylpiperidin-4-yl)homopiperazin-1-yl-2-phenyl-2-(4-chlorophenylaminocarbonylamino)-acetamide] cannot be ordered by IC50: 100 to 500 nM for the first, at least 500 nM for the second.

CNC(=N)c1ccc(NC(=O)C(NC(=O)Nc2ccc(Cl)cc2)c2ccccc2)cc1 (centres unmarked) [Example 25, N-[4-(methylaminoimino)phenyl]-2-phenyl-2-(4-chlorophenylamino-carbonylamino)-acetamide] and N=C(c1ccc(NC(=O)C(NC(=O)Nc2ccc(Cl)cc2)c2ccccc2)cc1)N1CCCC1 (centres unmarked) [Example 29] cannot be ordered by IC50: at most 100 nM for the first, at most 100 nM for the second.

CN(C)Cc1ccccc1-c1ccc(NC(=O)C(NC(=O)Nc2ccc(Br)cc2)c2ccccc2F)c(F)c1 (centres unmarked) [Example 57, N-[4-(2-dimethylaminomethyl-phenyl)-2-fluorophenyl]-2-(2-fluorophenyl)-2-(4-bromophenylaminocarbonylamino)-acetamide] and O=C(Nc1ccc(Cl)cc1)N[C@@H](C(=O)Nc1ccc(-n2ccccc2=O)cc1)c1ccccc1 [Example 138, (2R) N-[4-(2-pyridon-1-yl)phenyl]-2-phenyl-2-(4-chlorophenylaminocarbonylamino)-acetamide] cannot be ordered by IC50: at most 100 nM for the first, at most 100 nM for the second.

N=C(c1ccc(NC(=O)C(NC(=O)Nc2ccc(Cl)cc2)c2ccccc2I)cc1)N1CCCC1 (centres unmarked) [Example 117] and Cc1ccccc1C(NC(=O)Nc1ccc(Cl)cc1)C(=O)Nc1ccc(C(=O)N2CCCC2)cc1 (centres unmarked) [Example 94, N-[4-(pyrrolidin-1-ylcarbonyl)phenyl]-2-(2-methylphenyl)-2-(4-chlorophenylaminocarbonylamino)-acetamide] cannot be ordered by IC50: at most 100 nM for the first, at most 100 nM for the second.

First: CN(C)C(=O)CC(NC(=O)Nc1ccc(Cl)cc1)C(=O)Nc1ccc(C2=NCCN2C)cc1 (centres unmarked) [Example 63, N-[4-(1-methyl-4,5-dihydro-1H-imidazol-2-yl)phenyl]-2-dimethylaminocarbonylmethyl-2-(4-chlorophenylaminocarbonylamino)-acetamide]
Second: CN1CCN=C1c1ccc(NC(=O)C(Cc2c[nH]cn2)NC(=O)Nc2ccc(Cl)cc2)cc1 (centres unmarked) [Example 7, N-[4-(1-methyl-4,5-dihydro-1H-imidazol-2-yl)phenyl]-2-imidazol-4-ylmethyl-2-(4-chlorophenylaminocarbonylamino)-acetamide]
The IC50 of the first is higher: at least 500 nM for the first, at most 100 nM for the second. The second is the more potent here.

Cc1ccccc1C(NC(=O)Nc1ccc(Cl)cc1)C(=O)Nc1ccc(N2CCOCC2=O)cc1 (centres unmarked) [Example 95, N-[4-(3-oxo-morpholin-4-yl)phenyl]-2-(2-methylphenyl)-2-(4-chlorophenylaminocarbonylamino)-acetamide] and Cc1ccccc1C(NC(=O)Nc1ccc(Cl)cc1)C(=O)Nc1ccc(C(=O)N2CCSC2)cc1 (centres unmarked) [Example 97, N-[4-(thiazolidin-3-ylcarbonyl)phenyl]-2-(2-methylphenyl)-2-(4-chlorophenylaminocarbonylamino)-acetamide] cannot be ordered by IC50: at most 100 nM for the first, at most 100 nM for the second.

CN1CCN=C1c1ccc(NC(=O)CNC(=O)Nc2ccc(Cl)cc2)cc1 [Example 1, N-[4-(1-methyl-4,5-dihydro-1H-imidazol-2-yl)phenyl]-2-(4-chlorophenylaminocarbonylamino)-acetamide] and CN1CCN=C1c1ccc(NC(=O)C(NC(=O)Nc2ccc(Br)cc2)c2cccs2)cc1 (centres unmarked) [Example 30, N-[4-(1-methyl-4,5-dihydro-1H-imidazol-2-yl)phenyl]-2-(2-thienyl)-2-(4-bromophenylaminocarbonylamino)-acetamide] cannot be ordered by IC50: at most 100 nM for the first, at most 100 nM for the second.

COc1ccccc1C(NC(=O)Nc1ccc(Cl)cc1)C(=O)N1CCN(C2CCCNCC2)CC1 (centres unmarked) [Example 152, 4-(homopiperidin-4-yl)piperazin-1-yl-2-(2-methoxyphenyl)-2-(4-chlorophenylaminocarbonylamino)-acetamide] and CN1CCC(N2CCN(C(=O)C(NC(=O)Nc3ccc(Cl)cc3)c3ccccc3)CC2)CC1 (centres unmarked) [Example 128] cannot be ordered by IC50: at most 100 nM for the first, at most 100 nM for the second.
